The test system of one experiment is MRSA-ATCC33592. Put plainly: MIC broth microdilution, MRSA ATCC33592. In kind it is cell-based, Staphylococcus aureus. The settings on record: Staphylococcus aureus; overnight incubation, Mueller-Hinton broth; read-out: MIC MRSA-ATCC33592. The method, boiled down: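 Strains are MRSA clinical isolates, a reference MRSA strain, or non-MDR A. baumannii ATCC 19606. Each was grown in Mueller-Hinton broth at approximately 5×10^5 CFU/mL against compound serially halved from 100 to 0.78 μg/mL. MIC was read by eye after overnight 37° C incubation.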

For the next experiment, the system named is MDA-MB-231. In words: MTT cell viability, MDA-MB-231. Type of experiment: cell-based. The settings on record: Homo sapiens, breast cancer, 48 h of drug treatment, average of three experiments. As to the method:
(§1) Cell viability studies: Cell viability was assessed using the MTT assay as described before. In brief, all cancer cell lines were seeded at a density of 4×10^4/well in 96 well flat-bottom plates. After 24 h from seeding, cells were treated with the synthesized compounds and left for an incubation period of 48 h. Upon reaching the indicated time point, the media was removed and replaced with 200 μL fresh media containing 0.5 mg/mL of MTT tetrazolium dye (Sigma-Aldrich). Cells were then incubated with MTT solution for 2 h at 37° C. The resultant formazan crystals were dissolved in 200 μl/well of DMSO and absorbance was measured at 570 nm using a microplate reader (Thermo Scientific).

The test system of another experiment is SKBR3. Put plainly: MTT cell viability, SKBR3. Type of experiment: cell-based. The settings on record: Homo sapiens, SK-BR-3; breast cancer; 48 h of drug treatment; average of three experiments. As to the method: as §1
The next experiment has as its system HCT-116. Put plainly: MTT cell viability, HCT-116. Type of experiment: cell-based. The settings on record: Homo sapiens, colon cancer, 48 h of drug treatment, average of three experiments. An excerpt: Cell culture: In this study five different cancer cell lines were used, human lung carcinoma (A549), human breast adenoma (MCF-7), Cervical carcinoma (Hela), hepatocellular carcinoma (Hep3B), and colorectal adenocarcinoma (HCT-116). These cells were obtained from the European Collection of Cell Cultures (ECACC, UK). Hep3B cells were maintained in Dulbecco's Modified Eagle Medium (DMEM: Sigma-Aldrich), and the four other cell lines were maintained in Roswell Park Memorial Institute medium (RPMI, Sigma-Aldrich, St. Louis, Mo., USA), which was supplemented with 10% fetal bovine serum (FBS, Sigma-Aldrich) and 1% penicillin/streptomycin (Sigma-Aldrich). Cells were incubated all the time at 37° C. in a humidified atmosphere of 5% CO2. Cell viability studies: Cell viability was assessed using the MTT assay as described before. In brief, all cancer cell lines were seeded at a density of 4×10^4/well in 96 well flat-bottom plates. After 24 h from seeding, cells were treated with the synthesized compounds and left for an incubation period of 48 h. Upon reaching the indicated time point, the media was removed and replaced with 200 μL fresh media containing 0.5 mg/mL of MTT tetrazolium dye (Sigma-Aldrich). Cells were then incubated with MTT solution for 2 h at 37° C. The resultant formazan crystals were dissolved in 200 μl/well of DMSO and absorbance was measured at 570 nm using a microplate reader (Thermo Scientific).

A further experiment deals with HCT-116 cells. Put plainly: Western blot, apoptotic biomarkers, tumor suppressor genes and oncogenes, HCT-116. Type of experiment: cell-based, human. The conditions noted are these: for PARP cleavage / Cleavage of caspase7 and caspase-3 / Levels of p53 proteins / c-Myc oncogene level: HCT-116; for PARP cleavage / Cleavage of caspase7 and caspase-3: 1 to 4 μM, 48 h; for Cleavage of caspase7 and caspase-3: clear at 4 μM; for Levels of p53 proteins: at higher concentrations; for c-Myc oncogene level: dose-dependent manner; for Levels of BAX: treated cells, parallel to decreased p53. How it is done:
Western blotting (apoptotic biomarkers, tumor suppressor genes and oncogenes): Hep3B and HCT-116 cells were treated with 1f and 1h compounds with increasing concentrations from 1 to 4 μM for 48 h. After reaching the time point, proteins were extracted from the collected cells after their lyses, and protein quantification was performed using a Detergent compatible (DC) protein assay kit (Bio-Rad) following the manufacturer's instructions. 12% SDS-polyacrylamide gels were used to separate the proteins, following the proteins were transferred onto nitrocellulose membrane using a semi-dry transfer cell. After transfer, membranes were incubated with primary antibodies and the incubation was left overnight at 4° c. The following antibodies were implicated: anti-β actin (Cell Signalling #4970), anti-caspase3 (Cell Signalling #14220), anti-caspase-7 (Cell Signalling33 #9492), anti-PARP (Cell Signalling #9532), anti-P53 (Cell Signalling #2527), anti-C-myc (Cell Signalling #18583), and anti-BAX (#5023). Finally, membranes were incubated with secondary conjugated with horseradish peroxidase. The indicated proteins were detected by chemiluminescence.

In brackets after ≈: the same amount, converted by molar mass.

Consider `FC(F)(F)c1ccc(N/N=C2\C=C[C@@]3(CC2)CC[C@@H]2NCCc4c2n3c2ccccc42)cc1` (racemic) [Compound 1e], for which, in the experiment on MRSA-ATCC33592, the MIC is 3.12 µg/mL (≈ 6.94 µM). In addition, the results for the IC50 in the experiment with MDA-MB-231, with SKBR3 and in the experiment with HCT-116 were 3630 ± 60 nM, 1960 ± 80 nM and 487 ± 30 nM, respectively.
As to `FC(F)(F)Oc1ccc(N/N=C2\C=C[C@@]3(CC2)CC[C@@H]2NCCc4c2n3c2ccccc42)cc1` [Compound 1f], the MIC in the experiment on MRSA-ATCC33592 was 6.25 µg/mL (≈ 13.4 µM). Moreover, in the experiment on HCT-116 cells, the PARP cleavage entry is on record as “PARP cleavage”; the “Cleavage of caspase7 and caspase-3” value was “cleavage”; the “Levels of p53 proteins” value is given as “decreased”; the c-Myc oncogene level result is reported as “downregulate”. Also, the “Levels of BAX” value with HCT-116 cells is “decreased levels”. In the experiment with HCT-116, this compound gave an IC50 of 1960 ± 50 nM.
For the compound `Cc1ccc2c(c1)c1c3n2[C@@]2(C=C/C(=N\Nc4ccc(C(F)(F)F)cc4)CC2)CC[C@@H]3NCC1` [Compound 1h], the MIC with MRSA-ATCC33592 is 1.56 µg/mL (≈ 3.36 µM). Moreover, in the experiment with HCT-116 cells, the PARP cleavage entry was “PARP cleavage”; the “Cleavage of caspase7 and caspase-3” value is listed as “cleavage”; the “Levels of p53 proteins” value is recorded as “decreased”; the c-Myc oncogene level result was “downregulate”. The “Levels of BAX” value in the experiment with HCT-116 cells is listed as “decreased levels”. The IC50 with HCT-116 turned out to be 1780 ± 700 nM.
With `COc1ccc2c(c1)c1c3n2[C@@]2(C=C/C(=N\Nc4ccc(C(F)(F)F)cc4)CC2)CC[C@@H]3NCC1` [Compound 1k], in the experiment with MRSA-ATCC33592, the MIC is 3.12 µg/mL (≈ 6.5 µM). Also, the IC50 turned out to be 4030 ± 160 nM in the experiment with MDA-MB-231, 4100 ± 210 nM in the experiment on SKBR3 and 3380 ± 40 nM in the experiment on HCT-116.

The record behind these values is patent US11286258B2, “Nature-inspired anticancer and antibacterial motifs and pharmaceutical composition thereof” (University of Sharjah, priority 2020, dated 2022).
